Experimental data: patent US20150126507A1, “COMPOUNDS TO TREAT HEARING LOSS” (Fate Therapeutics, Inc., priority 2013, published 2015)

B1: AHR siRNA: pool of four siRNA sequences against human AHR (Thermo Scientific) (nucleic acid)
guide 1: GCAAGUUAAUGGCAUGUUU
guide 2: GAACUCAAGCUGUAUGGUA
guide 3: GCACGAGAGGCUCAGGUUA
guide 4: GCAACAAGAUGAGUCUAUU
modifications: pool of four siRNAs, further chemistry not given here

What follows are molecules tested on Atoh1 enhancer reporter in HEK293 cells (assay: Atoh1 reporter cell line, firefly luciferase normalized to renilla luciferase). Settings: Atoh1 reporter cell line treated with AHR agonists for 2 days.
Assay type: cell-based
Protocol: FIG. 2. Dose response data for selected hits. Atoh1 reporter cells plated in 384 well plates were treated with test compounds or vehicle controls for 2 days. Firefly luciferase signal was measured and normalized to the renilla luciferase signal. Results from duplicate wells (circles and triangles) are expressed relative to normalized controls treated with DMSO.
A reporter cell line expressed in HEK293 cells in which Atoh1 enhancer elements flanked a minimal promoter driving firefly luciferase expression was created. Dose response data was generated in the reporter cell line. Atoh1 reporter cells plated in […] plates were treated with test compounds or vehicle controls for 2 days. Firefly luciferase signal was measured and normalized to the renilla luciferase signal.
For high-throughput screening, HEK293 cells were transduced with a lentiviral vector containing a concatamer of Atoh1 enhancer A and B elements, the Promega minP minimal promoter, firefly luciferase coding sequence and hygromycin selectable marker. After selection, the cells were transduced with a second lentiviral vector containing the EF1α constitutive promoter, Renilla luciferase and puromycin selectable marker. A clonal derivative expressing both transgenes was expanded and banked for screening.
A screening assay was done by plating 8000 cells/well in 384 well plates, and treating for 48 hours with 1 and 10 μM test compound in DMSO, vehicle control, or the GSK-3B inhibitor, BIO, as a positive control. Firefly and Renilla luciferase were measured sequentially using Dual-Glo (Promega) with an Envision multi-label plate reader (Perkin Elmer). Data were analyzed after normalizing firefly luciferase signals to Renilla luciferase signals. A primary screen of 50,000 diverse compounds identified 140 hits. […] 10 of these 41 hits were selected for further analysis
To confirm activity in the 10 selected hits, the test compounds were reassayed at 3.3×10^−9, 1×10^−8, 3.3×10^−8, 1×10^−7, 3.3×10^−7, 1×10^−6, 3.3×10^−6 and 1×10^−5 molar concentrations. […] Results from duplicate wells (circles and triangles) are expressed relative to normalized controls treated with DMSO.

Molecule	Atoh1 reporter activity
COC(=O)c1csc(C(=O)c2c[nH]c3ccccc23)n1 [ITE, reference compound]	stimulated Atoh1 reporter activity
CN1C(=O)/C(=C2\Nc3ccccc3\C2=N/O)c2ccc(Br)cc21 [MeBIO, reference compound]	stimulated Atoh1 reporter activity
Br.Cc1ccc(C(=O)Cn2c3c(sc2=N)CCCC3)cc1 [Pfithrin-α-hydrobromide, reference compound]	stimulated Atoh1 reporter activity

Same assay, conditions: Homo sapiens, HEK293, 48 h, Atoh1 reporter HEK293 cells, treated 2 days, dose response; read-out: ED50 (the source's name)

Molecule	EC50 [nM]
Cc1c(C(=O)N(C)c2nccs2)oc2ccccc12 [Compound 1, N,3-dimethyl-N-(thiazol-2-yl)benzofuran-2-carboxamide]	1600
CN(C(=O)c1cc2ccccc2o1)c1nccs1 [Compound 2, N-methyl-N-(thiazol-2-yl)benzofuran-2-carboxamide]	700
Cc1nc(NC(=O)c2oc3ccccc3c2C)sc1C [Compound 3]	2700
CCOC(=O)c1sc(NC(=O)c2oc3ccccc3c2C)nc1C [Compound 5]	700
Cc1c(C(=O)Nc2nc(-c3ccccc3)cs2)oc2ccccc12 [Compound 6]	1300
Cc1c(C(=O)Nc2nc(C(C)(C)C)cs2)oc2ccccc12 [Compound 7]	1300
Cc1c(C(=O)Nc2nc(S(C)(=O)=O)cs2)oc2ccccc12 [Compound 8]	1100
Cc1nc(NC(=O)c2oc3ccccc3c2C)sc1C(=O)N(C)C [Compound 9]	1700
COc1ccc2nc(NC(=O)c3oc4ccccc4c3C)sc2c1 [Compound 11]	700
Cc1c(C(=O)Nc2nc3ccc(Cl)cc3s2)oc2ccccc12 [Compound 12]	600
O=C(Nc1nccs1)c1cc2ccccc2o1 [Compound 13]	400
COc1cccc2cc(C(=O)Nc3ncc(C)s3)oc12 [Compound 15]	1000
COc1cccc2cc(C(=O)Nc3nccs3)oc12 [Compound 16]	2700
O=C(Nc1nc2c(s1)CCCC2)c1cc2ccccc2o1 [Compound 17]	400
Cc1c(C(=O)Nc2nccs2)oc2c1ccc1ccccc12 [Compound 18]	> 3000
Cc1c(C(=O)Nc2nccs2)oc2c(Cl)cccc12 [Compound 19]	700
COc1ccc2oc(C(=O)Nc3nc(CN4CCOCC4)cs3)c(C)c2c1 [Compound 21]	900
CSCc1c(C(=O)Nc2nccs2)oc2ccccc12 [Compound 22]	500

Molecule	EC50 [nM]
CCOc1ccc2oc(C(=O)Nc3nccs3)c(C)c2c1 [Compound 23]	500
O=C(Nc1nccs1)c1oc2ccccc2c1COc1ccccc1 [Compound 24]	700
COCc1c(C(=O)Nc2nccs2)oc2ccccc12 [Compound 25]	1700
Cc1csc(N(C(=O)c2cc3ccccc3o2)c2ccccc2)n1 [Compound 26]	> 3000
Cc1cnc(NC(=O)c2cc3ccccc3o2)s1 [Compound 27]	200
CSCc1c(C(=O)Nc2nc(C)cs2)oc2ccccc12 [Compound 28]	1300
CN(C(=O)c1cc2cccc(Br)c2o1)c1nccs1 [Compound 29]	1400
O=C(Nc1nccs1)c1cc2cc(Br)ccc2o1 [Compound 30]	> 3000
Cc1c(C(=O)Nc2nccs2)oc2ccc(F)cc12 [Compound 31]	600
CCc1nc(NC(=O)c2oc3c(F)cccc3c2C)sc1C [Compound 32]	1000
Cc1cnc(NC(=O)c2oc3ccc(Br)cc3c2C)s1 [Compound 33]	400
Cc1csc(NC(=O)c2oc3ccc(Br)cc3c2C)n1 [Compound 34]	1600
COc1ccc2oc(C(=O)Nc3nc(C)cs3)c(C)c2c1 [Compound 35]	500
Cc1c(C(=O)Nc2nccs2)oc2ccc(Br)cc12 [Compound 36]	800
Cc1csc(NC(=O)c2oc3ccc(F)cc3c2C)n1 [Compound 37]	2300
Cc1csc(NC(=O)c2oc3c(Cl)cccc3c2C)n1 [Compound 38]	> 3000
CC(=O)c1sc(NC(=O)c2cc3ccccc3o2)nc1C [Compound 39]	500
Cc1c(C(=O)Nc2nccs2)oc2ccc(Cl)cc12 [Compound 41]	400

The molecules below were run against T1, AHR (Homo sapiens, UniProt P35869) (assay: AHR siRNA analysis in Atoh1 reporter cell line, luciferase assay and qRT-PCR). Settings: 75 nM siRNA, 5 μM Compound 4 for 48 hours, luciferase assay.
T1 construct: HEK293 cells were transduced with a lentiviral vector containing a concatamer of Atoh1 enhancer A and B elements; endogenous in cells; host or cells: HEK293-derived Atoh1 reporter cell line
T1 sequence (P35869 11-848): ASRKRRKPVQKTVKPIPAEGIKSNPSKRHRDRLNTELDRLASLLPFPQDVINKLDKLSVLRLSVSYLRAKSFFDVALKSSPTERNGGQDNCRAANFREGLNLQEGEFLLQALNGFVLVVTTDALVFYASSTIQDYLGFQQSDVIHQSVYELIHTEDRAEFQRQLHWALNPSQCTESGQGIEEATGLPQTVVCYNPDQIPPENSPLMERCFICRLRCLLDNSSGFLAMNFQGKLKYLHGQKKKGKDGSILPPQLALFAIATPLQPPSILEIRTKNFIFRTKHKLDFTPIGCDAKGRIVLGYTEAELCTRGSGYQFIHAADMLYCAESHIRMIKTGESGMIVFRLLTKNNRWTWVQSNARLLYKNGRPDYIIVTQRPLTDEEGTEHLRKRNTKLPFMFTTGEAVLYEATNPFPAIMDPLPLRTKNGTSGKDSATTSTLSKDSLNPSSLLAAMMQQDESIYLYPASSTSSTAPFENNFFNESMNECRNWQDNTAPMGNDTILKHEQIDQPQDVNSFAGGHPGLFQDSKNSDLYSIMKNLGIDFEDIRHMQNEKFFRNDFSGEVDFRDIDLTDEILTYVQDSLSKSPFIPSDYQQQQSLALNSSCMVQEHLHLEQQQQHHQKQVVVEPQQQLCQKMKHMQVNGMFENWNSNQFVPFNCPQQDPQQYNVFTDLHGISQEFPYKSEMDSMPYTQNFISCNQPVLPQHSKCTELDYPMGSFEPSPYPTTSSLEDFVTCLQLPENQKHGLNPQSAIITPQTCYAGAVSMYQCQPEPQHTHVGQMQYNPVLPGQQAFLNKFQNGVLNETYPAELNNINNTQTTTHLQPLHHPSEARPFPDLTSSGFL
Assay type: cell-based
Protocol: An siRNA analysis was used to determine if AHR is required for the Atoh1-inducing activity of Compound 4. One day before transfection, the Atoh1 reporter cell line was plated at 1.5×10^5 cells/well in a 24-well plate. The cells were transfected with 75 nM on-target plus human AHR siRNA SMART pool or Non-target pool using DharmaFECT1 (Thermo Scientific). AHR siRNA sequences in the SMART pool were GCAAGUUAAUGGCAUGUUU, GAACUCAAGCUGUAUGGUA, GCACGAGAGGCUCAGGUUA, and GCAACAAGAUGAGUCUAUU. Mock-transfected cells served as an additional negative control. 16 hours after transfection, media were replaced with fresh complete medium containing 5 μM Compound 4 or DMSO. After 48 hours of treatment, cells were analyzed by luciferase assay and qRT-PCR.
AHR siRNA reduced AHR expression by 69%, while the control siRNA was without effect. […] Results are expressed in FIGS. 6A and 6B as the average±S.D. for triplicate wells. […] See, e.g., Ben-Arie, et al., Human Mol. Genetics 5(9):1207-1216 (1996).

Molecule	reduction of Compound 4-mediated Atoh1 reporter activity [%]
B1	54

Same assay, conditions: 75 nM siRNA, qRT-PCR

Molecule	reduction of AHR expression [%]
B1	69

The molecules below were run on P5 rat cochlear explants (assay: Tobramycin treatment of cochlear explants, hair cell and supporting cell marker mRNA). Settings: tobramycin 1 mM, 3 days.
Assay type: cell-based
Protocol: The ten selected hits of Example 43 were assayed for the ability to induce Atoh1 expression in primary cultured cochlear explants from the neonatal rat. Postnatal day 5 (P5) rat cochlear explants were cultured with the ototoxic aminoglycoside antibiotic, tobramycin (1 mM), for 3 days prior to drug testing, as an in vitro model of drug-induced hearing loss. […] See, e.g., Ruedi, et al., Larynoscope 62:333-357 (1952). After the 3 day tobramycin pretreatment, the cochlear explants were cultured with the compounds of Example 43 or DMSO vehicle for an additional 2 days. Atoh1 expression levels, measured by qRT-PCR and normalized to ribosomal 18S expression, after hit compound treatments are shown in FIG. 3.

Molecule	Sox2 mRNA (supporting cell marker)	reduction of Atoh1 mRNA level	reduction of MYO7A mRNA level
NC[C@H]1O[C@H](O[C@H]2[C@H](O)[C@@H](O[C@H]3O[C@H](CO)[C@@H](O)[C@H](N)[C@H]3O)[C@H](N)C[C@@H]2N)[C@H](N)C[C@@H]1O [tobramycin]	without reducing	more than 80%	more than 80%
